Assay results as given in ChEMBL document CHEMBL1201861, “Genomics of Drug Sensitity in Cancer screening data, Wellcome Trust Sanger Institute”.

Columns and labels:
HCC1599 = assay: cells; format: functional, cell-based; details: Homo sapiens;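 also: growth inhibition of HCC1599 cells, read out in a cell viability assay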
Description: SANGER: Inhibition of human HCC1599 cell growth in a cell viability assay.

NCI-H64 = assay: cells; format: functional, cell-based; details: Homo sapiens;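 also: growth inhibition of NCI-H64 cells, read out with a cell viability assay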
Description: SANGER: Inhibition of human NCI-H64 cell growth in a cell viability assay.

IM-9 = assay: SANGER: Inhibition of human IM-9 cell growth in a cell viability assay.; format: functional, cell-based
HCT-15 = assay: cells; format: functional, cell-based, Homo sapiens; details: Homo sapiens, HCT-15;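 also: cell viability readout, IC50 reflecting suppression of HCT-15 cell growth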
Description: SANGER: Inhibition of human HCT-15 cell growth in a cell viability assay.

NCI-H1882 = assay: cells; format: functional, cell-based; details: Homo sapiens
Description: SANGER: Inhibition of human NCI-H1882 cell growth in a cell viability assay.

EHEB = assay: cells; format: functional, cell-based; details: Homo sapiens;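 also: growth inhibition of human EHEB cells, read out with a cell viability assay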
Description: SANGER: Inhibition of human EHEB cell growth in a cell viability assay.

DMS-153 = assay: cells; format: functional, cell-based; details: Homo sapiens
Description: SANGER: Inhibition of human DMS-153 cell growth in a cell viability assay.

NCI-H1694 = assay: cells; format: functional, cell-based; details: Homo sapiens;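 also: cell viability assay measuring inhibition of growth in human NCI-H1694 cells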
Description: SANGER: Inhibition of human NCI-H1694 cell growth in a cell viability assay.

MDA-MB-134-VI = assay: cells; format: functional, cell-based; details: Homo sapiens
Description: SANGER: Inhibition of human MDA-MB-134-VI cell growth in a cell viability assay.

CAL-148 = assay: cells; format: functional, cell-based; details: Homo sapiens
Description: SANGER: Inhibition of human CAL-148 cell growth in a cell viability assay.

MC-CAR = assay: cells; format: functional, cell-based; details: Homo sapiens;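 also: growth inhibition of the human MC-CAR cell line, read out by a cell viability assay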
Description: SANGER: Inhibition of human MC-CAR cell growth in a cell viability assay.

SR = assay: cells; format: functional, cell-based; details: Homo sapiens
Description: SANGER: Inhibition of human SR cell growth in a cell viability assay.

EB2 = assay: cells; format: functional, cell-based; details: Homo sapiens;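 also: growth inhibition of EB2 cells, read out with a cell viability assay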
Description: SANGER: Inhibition of human EB2 cell growth in a cell viability assay.

TUR = assay: cells; format: functional, cell-based; details: Homo sapiens;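 also: growth inhibition of human TUR cells, read out with a cell viability assay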
Description: SANGER: Inhibition of human TUR cell growth in a cell viability assay.

NCI-H187 = assay: cells; format: functional, cell-based; details: Homo sapiens;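 also: growth inhibition of NCI-H187 cells, read out as cell viability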
Description: SANGER: Inhibition of human NCI-H187 cell growth in a cell viability assay.

G-361 = assay: cells; format: functional, cell-based, Homo sapiens; details: Homo sapiens, G-361
KMS-12-PE = assay: cells; format: functional, cell-based; details: Homo sapiens;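 also: growth inhibition of human KMS-12-PE cells, measured with a cell viability assay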
Description: SANGER: Inhibition of human KMS-12-PE cell growth in a cell viability assay.

Daudi = assay: cells; format: functional, cell-based; details: Homo sapiens;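 also: growth inhibition of Daudi cells, read out by a viability assay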
Description: SANGER: Inhibition of human Daudi cell growth in a cell viability assay.

NCI-H2171 = assay: cells; format: functional, cell-based; details: Homo sapiens;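 also: growth inhibition of human NCI-H2171 cells, read out by a cell viability assay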
Description: SANGER: Inhibition of human NCI-H2171 cell growth in a cell viability assay.

EB-3 = assay: cells; format: functional, cell-based; details: Homo sapiens;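 also: human EB-3 cells, growth inhibition read out via a cell viability assay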
Description: SANGER: Inhibition of human EB-3 cell growth in a cell viability assay.

IMR-5 = assay: cells; format: functional, cell-based; details: Homo sapiens;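 also: growth inhibition of human IMR-5 cells, read out with a cell viability assay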
Description: SANGER: Inhibition of human IMR-5 cell growth in a cell viability assay.

THP-1 = assay: cells; format: functional, cell-based; details: Homo sapiens;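 also: growth inhibition of THP-1 cells, read out via a cell viability assay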
Description: SANGER: Inhibition of human THP-1 cell growth in a cell viability assay.

SK-MM-2 = assay: cells; format: functional, cell-based; details: Homo sapiens;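 also: growth inhibition of human SK-MM-2 cells, read out with a cell viability assay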
Description: SANGER: Inhibition of human SK-MM-2 cell growth in a cell viability assay.

NCCIT = assay: SANGER: Inhibition of human NCCIT cell growth in a cell viability assay.; format: functional, cell-based
NCI-H719 = assay: cells; format: functional, cell-based; details: Homo sapiens;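 also: growth inhibition of the cultured cell line, read out with a viability assay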
Description: SANGER: Inhibition of human NCI-H719 cell growth in a cell viability assay.

NCI-H748 = assay: cells; format: functional, cell-based; details: Homo sapiens;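 also: growth inhibition of NCI-H748 cells, measured by a cell viability assay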
Description: SANGER: Inhibition of human NCI-H748 cell growth in a cell viability assay.

ECC4 = assay: cells; format: functional, cell-based; details: Homo sapiens;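 also: growth inhibition of ECC4 cells, read out with a cell viability assay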
Description: SANGER: Inhibition of human ECC4 cell growth in a cell viability assay.

SCLC-21H = assay: cells; format: functional, cell-based; details: Homo sapiens;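 also: growth inhibition of cultured human SCLC-21H cells, read out with a cell viability assay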
Description: SANGER: Inhibition of human SCLC-21H cell growth in a cell viability assay.

REH = assay: cells; format: functional, cell-based; details: Homo sapiens;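 also: growth inhibition of REH cells determined with a cell viability read-out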
Description: SANGER: Inhibition of human REH cell growth in a cell viability assay.

NCI-H2009 = assay: cells; format: functional, cell-based, Homo sapiens; details: Homo sapiens, NCI-H2009;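 also: cell viability assay measuring inhibition of NCI-H2009 cell growth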
Description: SANGER: Inhibition of human NCI-H2009 cell growth in a cell viability assay.

RPMI-6666 = assay: cells; format: functional, cell-based; details: Homo sapiens
Description: SANGER: Inhibition of human RPMI-6666 cell growth in a cell viability assay.

SJRH30 = assay: cells; format: functional, cell-based; details: Homo sapiens;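 also: growth inhibition of human SJRH30 cells, read out with a cell viability assay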
Description: SANGER: Inhibition of human SJRH30 cell growth in a cell viability assay.

NCI-H345 = assay: cells; format: functional, cell-based; details: Homo sapiens;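 also: growth inhibition of NCI-H345 cells measured with a cell viability assay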
Description: SANGER: Inhibition of human NCI-H345 cell growth in a cell viability assay.

K052 = assay: cells; format: functional, cell-based; details: Homo sapiens;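 also: Read-out from a cell viability assay, IC50 reflecting suppression of K052 cell growth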
Description: SANGER: Inhibition of human K052 cell growth in a cell viability assay.

LB647-SCLC = assay: cells; format: functional, cell-based; details: Homo sapiens;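 also: cell growth inhibition, read out by a viability assay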
Description: SANGER: Inhibition of human LB647-SCLC cell growth in a cell viability assay.

ST486 = assay: SANGER: Inhibition of human ST486 cell growth in a cell viability assay.; format: functional, cell-based
DG-75 = assay: cells; format: functional, cell-based; details: Homo sapiens;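 also: growth inhibition of DG-75 cells, read out with a cell viability assay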
Description: SANGER: Inhibition of human DG-75 cell growth in a cell viability assay.

NCI-H2227 = assay: cells; format: functional, cell-based; details: Homo sapiens;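 also: growth inhibition of the human cell line, read out with a cell viability assay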
Description: SANGER: Inhibition of human NCI-H2227 cell growth in a cell viability assay.

LP-1 = assay: cells; format: functional, cell-based; details: Homo sapiens;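 also: growth inhibition of human LP-1 cells, with the read-out taken from a cell viability assay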
Description: SANGER: Inhibition of human LP-1 cell growth in a cell viability assay.

NCI-H1703 = assay: cells; format: functional, cell-based, Homo sapiens; details: Homo sapiens, NCI-H1703;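 also: growth inhibition of NCI-H1703 cells, read out via a cell viability assay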
Description: SANGER: Inhibition of human NCI-H1703 cell growth in a cell viability assay.

NCI-H2141 = assay: cells; format: functional, cell-based; details: Homo sapiens;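 also: growth inhibition of human NCI-H2141 cells, read out with a cell viability assay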
Description: SANGER: Inhibition of human NCI-H2141 cell growth in a cell viability assay.

MEL-JUSO = assay: cells; format: functional, cell-based, Homo sapiens; details: Homo sapiens, MEL-JUSO;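 also: growth inhibition of human MEL-JUSO cells, read out with a cell viability assay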
Description: SANGER: Inhibition of human MEL-JUSO cell growth in a cell viability assay.

NALM-6 = assay: cells; format: functional, cell-based; details: Homo sapiens;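 also: growth inhibition of NALM-6 cells, read out with a cell viability assay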
Description: SANGER: Inhibition of human NALM-6 cell growth in a cell viability assay.

ARH-77 = assay: cells; format: functional, cell-based; details: Homo sapiens;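 also: growth inhibition of ARH-77 cells, read out by a cell viability assay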
Description: SANGER: Inhibition of human ARH-77 cell growth in a cell viability assay.

BC1 cell line = assay: SANGER: Inhibition of human BC-1 cell growth in a cell viability assay.; format: functional, cell-based
NCI-H1417 = assay: cells; format: functional, cell-based; details: Homo sapiens;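 also: human NCI-H1417 cells, growth inhibition determined with a cell viability readout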
Description: SANGER: Inhibition of human NCI-H1417 cell growth in a cell viability assay.

NCI-H460 = assay: cells; format: functional, cell-based, Homo sapiens; details: Homo sapiens, NCI-H460;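 also: cell viability assay scoring growth inhibition of human NCI-H460 cells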
Description: SANGER: Inhibition of human NCI-H460 cell growth in a cell viability assay.

NCI-H322M = assay: cells; format: functional, cell-based; details: Homo sapiens;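 also: cell viability assay measuring inhibition of growth of human NCI-H322M cells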
Description: SANGER: Inhibition of human NCI-H322M cell growth in a cell viability assay.

NCI-H522 = assay: cells; format: functional, cell-based, Homo sapiens; details: Homo sapiens, NCI-H522;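 also: cell viability assay measuring growth inhibition of human NCI-H522 cells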
Description: SANGER: Inhibition of human NCI-H522 cell growth in a cell viability assay.

LC-1F = assay: cells; format: functional, cell-based; details: Homo sapiens;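 also: growth inhibition of human LC-1F cells, read out with a cell viability assay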
Description: SANGER: Inhibition of human LC-1F cell growth in a cell viability assay.

IST-SL2 = assay: cells; format: functional, cell-based; details: Homo sapiens;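 also: growth inhibition of human IST-SL2 cells, read out by a cell viability assay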
Description: SANGER: Inhibition of human IST-SL2 cell growth in a cell viability assay.

CN(c1ncccc1CNc1nc(Nc2ccc3c(c2)CC(=O)N3)ncc1C(F)(F)F)S(C)(=O)=O [PF-00562271]
IC50 (HCC1599): > 2560 nM | IC50 (NCI-H64): > 2560 nM | IC50 (IM-9): > 2560 nM | IC50 (HCT-15): > 2560 nM | IC50 (NCI-H1882): > 2560 nM | IC50 (EHEB): > 2560 nM | IC50 (DMS-153): > 2560 nM | IC50 (NCI-H1694): > 2560 nM | IC50 (MDA-MB-134-VI): > 2560 nM | IC50 (CAL-148): > 2560 nM | IC50 (MC-CAR): > 2560 nM | IC50 (SR): > 2560 nM | IC50 (EB2): > 2560 nM | IC50 (TUR): > 2560 nM | IC50 (NCI-H187): > 2560 nM | IC50 (G-361): > 2560 nM | IC50 (KMS-12-PE): > 2560 nM | IC50 (Daudi): > 2.56 µM | IC50 (NCI-H2171): > 2560 nM | IC50 (EB-3): > 2560 nM | IC50 (IMR-5): > 2560 nM | IC50 (THP-1): > 2560 nM | IC50 (SK-MM-2): > 2560 nM | IC50 (NCCIT): > 2560 nM | IC50 (NCI-H719): > 2560 nM | IC50 (NCI-H748): > 2560 nM | IC50 (ECC4): > 2560 nM | IC50 (SCLC-21H): > 2560 nM | IC50 (REH): > 2560 nM | IC50 (NCI-H2009): > 2560 nM | IC50 (RPMI-6666): > 2560 nM | IC50 (SJRH30): > 2560 nM | IC50 (NCI-H345): > 2560 nM | IC50 (K052): > 2560 nM | IC50 (LB647-SCLC): > 2560 nM | IC50 (ST486): 1530 nM | IC50 (DG-75): > 2560 nM | IC50 (NCI-H2227): > 2560 nM | IC50 (LP-1): > 2560 nM | IC50 (NCI-H1703): > 2560 nM | IC50 (NCI-H2141): > 2560 nM | IC50 (MEL-JUSO): 1730 nM | IC50 (NALM-6): > 2560 nM | IC50 (ARH-77): > 2560 nM | IC50 (BC1 cell line): 1620 nM | IC50 (NCI-H1417): > 2560 nM | IC50 (NCI-H460): 2050 nM | IC50 (NCI-H322M): > 2560 nM | IC50 (NCI-H522): > 2560 nM | IC50 (LC-1F): > 2560 nM | IC50 (IST-SL2): > 2560 nM

Cc1ccc(Nc2nccc(N(C)c3ccc4c(C)n(C)nc4c3)n2)cc1S(N)(=O)=O [PAZOPANIB]
IC50 (HCC1599): > 8000 nM | IC50 (NCI-H64): > 8000 nM | IC50 (IM-9): > 8000 nM | IC50 (HCT-15): > 8000 nM | IC50 (NCI-H1882): > 8000 nM | IC50 (EHEB): > 8000 nM | IC50 (DMS-153): > 8000 nM | IC50 (NCI-H1694): > 8000 nM | IC50 (MDA-MB-134-VI): > 8000 nM | IC50 (CAL-148): > 8000 nM | IC50 (MC-CAR): > 8000 nM | IC50 (SR): > 8000 nM | IC50 (EB2): 3280 nM | IC50 (TUR): > 8000 nM | IC50 (NCI-H187): > 8000 nM | IC50 (G-361): 3040 nM | IC50 (KMS-12-PE): > 8000 nM | IC50 (Daudi): 3.66 µM | IC50 (NCI-H2171): > 8000 nM | IC50 (EB-3): > 8000 nM | IC50 (IMR-5): > 8000 nM | IC50 (THP-1): > 8000 nM | IC50 (SK-MM-2): > 8000 nM | IC50 (NCCIT): > 8000 nM | IC50 (NCI-H719): > 8000 nM | IC50 (NCI-H748): > 8000 nM | IC50 (ECC4): > 8000 nM | IC50 (SCLC-21H): > 8000 nM | IC50 (REH): > 8000 nM | IC50 (NCI-H2009): > 8000 nM | IC50 (RPMI-6666): > 8000 nM | IC50 (SJRH30): > 8000 nM | IC50 (NCI-H345): > 8000 nM | IC50 (K052): > 8000 nM | IC50 (LB647-SCLC): > 8000 nM | IC50 (ST486): > 8000 nM | IC50 (DG-75): > 8000 nM | IC50 (NCI-H2227): > 8000 nM | IC50 (LP-1): > 8000 nM | IC50 (NCI-H1703): > 8000 nM | IC50 (NCI-H2141): > 8000 nM | IC50 (MEL-JUSO): > 8000 nM | IC50 (NALM-6): > 8000 nM | IC50 (ARH-77): > 8000 nM | IC50 (BC1 cell line): > 8000 nM | IC50 (NCI-H1417): > 8000 nM | IC50 (NCI-H460): > 8000 nM | IC50 (NCI-H322M): > 8000 nM | IC50 (NCI-H522): > 8000 nM | IC50 (LC-1F): > 8000 nM | IC50 (IST-SL2): > 8000 nM

Cc1cnc(-c2cnc(NCCNc3ccc(C#N)cn3)nc2-c2ccc(Cl)cc2Cl)[nH]1 [LADUVIGLUSIB]
IC50 (HCC1599): > 2560 nM | IC50 (NCI-H64): > 2560 nM | IC50 (IM-9): > 2560 nM | IC50 (HCT-15): > 2560 nM | IC50 (NCI-H1882): > 2560 nM | IC50 (EHEB): > 2560 nM | IC50 (DMS-153): > 2560 nM | IC50 (NCI-H1694): > 2560 nM | IC50 (MDA-MB-134-VI): > 2560 nM | IC50 (CAL-148): > 2560 nM | IC50 (MC-CAR): > 2560 nM | IC50 (SR): > 2560 nM | IC50 (EB2): > 2560 nM | IC50 (TUR): > 2560 nM | IC50 (NCI-H187): > 2560 nM | IC50 (G-361): > 2560 nM | IC50 (KMS-12-PE): > 2560 nM | IC50 (Daudi): > 2.56 µM | IC50 (NCI-H2171): > 2560 nM | IC50 (EB-3): > 2560 nM | IC50 (IMR-5): > 2560 nM | IC50 (THP-1): > 2560 nM | IC50 (SK-MM-2): > 2560 nM | IC50 (NCCIT): > 2560 nM | IC50 (NCI-H719): > 2560 nM | IC50 (NCI-H748): > 2560 nM | IC50 (ECC4): > 2560 nM | IC50 (SCLC-21H): > 2560 nM | IC50 (REH): > 2560 nM | IC50 (NCI-H2009): > 2560 nM | IC50 (RPMI-6666): > 2560 nM | IC50 (SJRH30): > 2560 nM | IC50 (NCI-H345): > 2560 nM | IC50 (K052): > 2560 nM | IC50 (LB647-SCLC): > 2560 nM | IC50 (ST486): > 2560 nM | IC50 (DG-75): > 2560 nM | IC50 (NCI-H2227): > 2560 nM | IC50 (LP-1): > 2560 nM | IC50 (NCI-H1703): > 2560 nM | IC50 (NCI-H2141): > 2560 nM | IC50 (MEL-JUSO): > 2560 nM | IC50 (NALM-6): > 2560 nM | IC50 (ARH-77): > 2560 nM | IC50 (BC1 cell line): > 2560 nM | IC50 (NCI-H1417): > 2560 nM | IC50 (NCI-H460): > 2560 nM | IC50 (NCI-H322M): > 2560 nM | IC50 (NCI-H522): > 2560 nM | IC50 (LC-1F): > 2560 nM | IC50 (IST-SL2): > 2560 nM
